# Results published in patent publication US6340689B1 (priority 1999, dated 2002).
# How the values were obtained:
# [1] = system: L. pneumophila serogroup 1; assay: microbe, parasite or virus in culture; format: cell-based, Legionella pneumophila; details: for MIC50 / MIC / MIC90: Legionella pneumophila; for MIC: 48 h, read-out: MIC Range; for MIC90 / MIC 90%: L. pneumophila serogroup 1 (n = 85)
# [2] = system: L. pneumophila serogroup 2; assay: microbe, parasite or virus in culture; format: cell-based; details: Legionella pneumophila; for MIC: 48 h, read-out: MIC Range
# [3] = system: L. pneumophila serogroup 3; assay: microbe, parasite or virus in culture; format: cell-based; details: Legionella pneumophila; for MIC: 48 h, read-out: MIC Range
# [4] = system: L. pneumophila serogroup 4; assay: microbe, parasite or virus in culture; format: cell-based; details: Legionella pneumophila; for MIC: 48 h, read-out: MIC Range
# [5] = system: L. pneumophila serogroup 5; assay: microbe, parasite or virus in culture; format: cell-based; details: Legionella pneumophila; for MIC: 48 h, read-out: MIC Range
# [6] = system: L. pneumophila serogroup 6; assay: microbe, parasite or virus in culture; format: cell-based; details: Legionella pneumophila; for MIC: 48 h, read-out: MIC Range
# [7] = system: L. pneumophila serogroup 7; assay: microbe, parasite or virus in culture; format: cell-based; details: Legionella pneumophila; for MIC: 48 h, read-out: MIC Range
# [8] = system: L. pneumophila serogroup 8, 9; assay: microbe, parasite or virus in culture; format: cell-based; details: Legionella pneumophila; for MIC: 48 h, read-out: MIC Range
# L. dumoffii = assay: organism not typed; format: cell-based; details: for MIC: 48 h, read-out: MIC Range
# L. micadadei = assay: organism not typed; format: cell-based, L. micdadei; details: for MIC: 48 h, read-out: MIC Range
# L. longbeacheae = assay: organism not typed; format: cell-based; details: for MIC: 48 h, read-out: MIC Range
# Other Legionella spp. = assay: microbe, parasite or virus in culture; format: cell-based; details: for MIC: 48 h, read-out: MIC Range
# [9] = system: Erythromycin-susceptible L. pneumophila; format: cell-based, Legionella pneumophila; details: for Mean PAE: Erythromycin-susceptible L. pneumophila (n = 15), 4 × MIC, mean ± SD
# [10] = system: Erythromycin-susceptible Legionella spp. other than L. pneumophila; format: cell-based; details: for Mean PAE: Erythromycin-susceptible Legionella spp. (n = 13), 4 × MIC, mean ± SD
# [11] = system: isolates of Legionella pneumophila and other Legionella spp.; assay: microbe, parasite or virus in culture; format: cell-based
# [12] = system: L. pneumophila serogroups 1-9; format: cell-based, Legionella pneumophila
# [13] = system: L. dumoffii and L. longbeachae; assay: organism not typed; format: cell-based
compound,measurement,setting,value
Cc1c(F)c(N2CCNC(C)C2)cc2c1c(=O)c(C(=O)O)cn2C1CC1 (stereo not shown) [Grepafloxacin],MIC50,[1],0.016 µg/mL
same,MIC,[1],0.004 to 0.06 µg/mL
same,MIC90,[1],0.016 µg/mL
same,MIC50,[2],0.008 µg/mL
same,MIC90,[2],0.016 µg/mL
same,MIC,[2],0.004 to 0.03 µg/mL
same,MIC50,[3],0.008 µg/mL
same,MIC90,[3],0.016 µg/mL
same,MIC,[3],0.004 to 0.016 µg/mL
same,MIC50,[4],0.008 µg/mL
same,MIC90,[4],0.016 µg/mL
same,MIC,[4],0.008 to 0.016 µg/mL
same,MIC50,[5],0.016 µg/mL
same,MIC90,[5],0.03 µg/mL
same,MIC50,[6],0.008 µg/mL
same,MIC90,[6],0.016 µg/mL
same,MIC,[6],0.004 to 0.016 µg/mL
same,MIC50,[7],≤ 0.004 µg/mL
same,MIC90,[7],0.008 µg/mL
same,MIC,[7],0.004 to 0.008 µg/mL
same,MIC50,[8],0.008 µg/mL
same,MIC90,[8],0.008 µg/mL
same,MIC,[8],0.008 µg/mL
same,MIC50,L. dumoffii,0.06 µg/mL
same,MIC90,L. dumoffii,0.06 µg/mL
same,MIC,L. dumoffii,0.06 µg/mL
same,MIC50,L. micadadei,0.008 µg/mL
same,MIC90,L. micadadei,0.016 µg/mL
same,MIC,L. micadadei,0.004 to 0.016 µg/mL
same,MIC50,L. longbeacheae,0.03 µg/mL
same,MIC90,L. longbeacheae,0.06 µg/mL
same,MIC,L. longbeacheae,0.004 to 0.06 µg/mL
same,MIC50,Other Legionella spp.,0.03 µg/mL
same,MIC90,Other Legionella spp.,0.03 µg/mL
same,MIC,Other Legionella spp.,0.004 to 0.03 µg/mL
same,Mean PAE,[9],2.62 ± 3 h
same,Mean PAE,[10],1.67 ± 1 h
same,MIC90,[11],0.016 µg/mL
"CO/N=C1\CN(c2nc3c(cc2F)c(=O)c(C(=O)O)cn3C2CC2)CC1CN (racemic) [Gemifloxacin, (R,S)-7-(3-aminomethyl-4-methoxyiminopyrrolidin-1-yl)-1-cyclopropyl-6-fluoro-4-oxo-1,4-dihydro-1,8-naphthyridine-3-carboxylic acid]",MIC 90%,[1],≦0.004 mg/L
same,MIC 90%,[1]; listed as gemifloxacin,0.016 µg/mL
same,MIC50,[1],0.016 µg/mL
same,MIC,[1],0.008 to 0.06 µg/mL
same,MIC50,[2],0.008 µg/mL
same,MIC90,[2],0.016 µg/mL
same,MIC,[2],0.008 to 0.016 µg/mL
same,MIC50,[3],0.016 µg/mL
same,MIC90,[3],0.016 µg/mL
same,MIC,[3],0.008 to 0.016 µg/mL
same,MIC50,[4],0.016 µg/mL
same,MIC90,[4],0.03 µg/mL
same,MIC,[4],0.008 to 0.03 µg/mL
same,MIC50,[5],0.03 µg/mL
same,MIC90,[5],0.03 µg/mL
same,MIC,[5],0.03 to 0.06 µg/mL
same,MIC50,[6],0.016 µg/mL
same,MIC90,[6],0.03 µg/mL
same,MIC,[6],0.008 to 0.03 µg/mL
same,MIC50,[7],0.008 µg/mL
same,MIC90,[7],0.016 µg/mL
same,MIC,[7],0.008 to 0.016 µg/mL
same,MIC50,[8],0.016 µg/mL
same,MIC90,[8],0.016 µg/mL
same,MIC,[8],0.016 µg/mL
same,MIC50,L. dumoffii,0.06 µg/mL
same,MIC90,L. dumoffii,0.06 µg/mL
same,MIC,L. dumoffii,0.06 µg/mL
same,MIC50,L. micadadei,0.016 µg/mL
same,MIC90,L. micadadei,0.03 µg/mL
same,MICs fold more active than erythromycin,L. micadadei,5 fold
same,MIC,L. micadadei,0.008 to 0.03 µg/mL
same,MIC50,L. longbeacheae,0.06 µg/mL
same,MIC90,L. longbeacheae,0.06 µg/mL
same,MIC,L. longbeacheae,0.016 to 0.06 µg/mL
same,MIC50,Other Legionella spp.,0.03 µg/mL
same,MIC90,Other Legionella spp.,0.06 µg/mL
same,MIC,Other Legionella spp.,0.016 to 0.06 µg/mL
same,Mean PAE,[9],3.49 ± 3 h
same,"mean PAE longer than that of trovafloxacin, levofloxacin and clarithromycin",[9]; erythromycin-susceptible L. pneumophila,≥ 1 h
same,Mean PAE,[10],2.27 ± 2 h
same,PAE (mean PAE),"[10]; erythromycin-susceptible Legionella spp. other than L. pneumophila, four times the MIC",2.27 h
same,"mean PAE longer than that of trovafloxacin, moxifloxacin and clarithromycin",[10]; erythromycin-susceptible Legionella spp. other than pneumophila,≥ 1 h
same,MIC90,[11],0.016 µg/mL
same,MIC range,"[12]; L. pneumophila serogroups 1-9, text",0.008 to 0.06 µg/mL
same,fold more active than erythromycin,[12]; against L. pneumophila strains tested,5-6 fold
same,MIC90,[13],0.06 µg/mL
CO[C@H]1/C=C/O[C@@]2(C)Oc3c(C)c(O)c4c(O)c(c(/C=N/N5CCN(C)CC5)c(O)c4c3C2=O)NC(=O)/C(C)=C\C=C\[C@H](C)[C@H](O)[C@@H](C)[C@@H](O)[C@@H](C)[C@H](OC(C)=O)[C@@H]1C [Rifampicin],MIC50,[1],≤ 0.004 µg/mL
same,MIC,[1],0.004 to 0.008 µg/mL
same,MIC90,[1],0.008 µg/mL
same,MIC50,[2],≤ 0.004 µg/mL
same,MIC90,[2],≤ 0.004 µg/mL
same,MIC,[2],≤ 0.004 µg/mL
same,MIC50,[3],≤ 0.004 µg/mL
same,MIC90,[3],≤ 0.004 µg/mL
same,MIC,[3],≤ 0.004 µg/mL
same,MIC50,[4],≤ 0.004 µg/mL
same,MIC90,[4],≤ 0.004 µg/mL
same,MIC,[4],0.004 to 0.008 µg/mL
same,MIC50,[5],≤ 0.004 µg/mL
same,MIC90,[5],≤ 0.004 µg/mL
same,MIC,[5],≤ 0.004 µg/mL
same,MIC50,[6],≤ 0.004 µg/mL
same,MIC90,[6],≤ 0.004 µg/mL
same,MIC,[6],0.004 to 0.008 µg/mL
same,MIC50,[7],≤ 0.004 µg/mL
same,MIC90,[7],≤ 0.004 µg/mL
same,MIC,[7],≤ 0.004 µg/mL
same,MIC50,[8],≤ 0.004 µg/mL
same,MIC90,[8],≤ 0.004 µg/mL
same,MIC,[8],≤ 0.004 µg/mL
same,MIC50,L. dumoffii,0.008 µg/mL
same,MIC90,L. dumoffii,0.016 µg/mL
same,MIC,L. dumoffii,0.004 to 0.03 µg/mL
same,MIC50,L. micadadei,0.008 µg/mL
same,MIC90,L. micadadei,0.008 µg/mL
same,MIC,L. micadadei,0.008 µg/mL
same,MIC50,L. longbeacheae,≤ 0.004 µg/mL
same,MIC90,L. longbeacheae,0.06 µg/mL
same,MIC,L. longbeacheae,0.004 to 0.06 µg/mL
same,MIC50,Other Legionella spp.,≤ 0.004 µg/mL
same,MIC90,Other Legionella spp.,0.008 µg/mL
same,MIC,Other Legionella spp.,0.004 to 0.008 µg/mL
same,Mean PAE,[9],2.86 ± 5 h
same,Mean PAE,[10],3.09 ± 4 h
same,MIC90,[11],≤ 0.008 µg/mL
